Source: the supplement of paper PMC11451515

System: P12-Ichikawa
Test: cell viability relative to DMSO control; higher = less cytotoxic
Conditions: 48 h
Procedure, shortened: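 NOMO1 or SEM cells were plated at 500 cells/well and P12-Ichikawa cells at 1000 cells/well in 1536-well plates (5 μl), after each leukemia line had been adapted for at least four passages in each medium. Pin dosing delivered library compounds in DMSO at 11 threefold concentrations, 47 μM to 0.79 nM. CellTiter-Glo One luminescence was read after 48 h at 37°C. Viability is reported as a per-plate percentage of DMSO wells, with cell-free wells as background.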

[1] = HPLM + 10% dialyzed FBS, 0.000781 µM
[2] = HPLM + 10% dialyzed FBS, 0.00234 µM
[3] = HPLM + 10% dialyzed FBS, 0.00702 µM
[4] = HPLM + 10% dialyzed FBS, 0.0211 µM
[5] = HPLM + 10% dialyzed FBS, 0.0632 µM
[6] = HPLM + 10% dialyzed FBS, 0.19 µM
[7] = HPLM + 10% dialyzed FBS, 0.569 µM
[8] = HPLM + 10% dialyzed FBS, 1.71 µM
[9] = HPLM + 10% dialyzed FBS, 5.12 µM
[10] = HPLM + 10% dialyzed FBS, 15.4 µM
[11] = HPLM + 10% dialyzed FBS, 46.1 µM
[12] = RPMI 5 mM glucose + 10% FBS, 0.000781 µM
[13] = RPMI 5 mM glucose + 10% FBS, 0.00234 µM
[14] = RPMI 5 mM glucose + 10% FBS, 0.00702 µM
[15] = RPMI 5 mM glucose + 10% FBS, 0.0211 µM
[16] = RPMI 5 mM glucose + 10% FBS, 0.0632 µM
[17] = RPMI 5 mM glucose + 10% FBS, 0.19 µM
[18] = RPMI 5 mM glucose + 10% FBS, 0.569 µM
[19] = RPMI 5 mM glucose + 10% FBS, 1.71 µM
[20] = RPMI 5 mM glucose + 10% FBS, 5.12 µM
[21] = RPMI 5 mM glucose + 10% FBS, 15.4 µM
[22] = RPMI 5 mM glucose + 10% FBS, 46.1 µM
[23] = RPMI 5 mM glucose + 10% dialyzed FBS, 0.000781 µM
[24] = RPMI 5 mM glucose + 10% dialyzed FBS, 0.00234 µM
[25] = RPMI 5 mM glucose + 10% dialyzed FBS, 0.00702 µM
[26] = RPMI 5 mM glucose + 10% dialyzed FBS, 0.0211 µM
[27] = RPMI 5 mM glucose + 10% dialyzed FBS, 0.0632 µM
[28] = RPMI 5 mM glucose + 10% dialyzed FBS, 0.19 µM
[29] = RPMI 5 mM glucose + 10% dialyzed FBS, 0.569 µM
[30] = RPMI 5 mM glucose + 10% dialyzed FBS, 1.71 µM
[31] = RPMI 5 mM glucose + 10% dialyzed FBS, 5.12 µM
[32] = RPMI 5 mM glucose + 10% dialyzed FBS, 15.4 µM
[33] = RPMI 5 mM glucose + 10% dialyzed FBS, 46.1 µM

Row | SMILES | cell viability [1] | cell viability [2] | cell viability [3] | cell viability [4] | cell viability [5] | cell viability [6] | cell viability [7] | cell viability [8] | cell viability [9] | cell viability [10] | cell viability [11] | cell viability [12] | cell viability [13] | cell viability [14] | cell viability [15] | cell viability [16] | cell viability [17] | cell viability [18] | cell viability [19] | cell viability [20] | cell viability [21] | cell viability [22] | cell viability [23] | cell viability [24] | cell viability [25] | cell viability [26] | cell viability [27] | cell viability [28] | cell viability [29] | cell viability [30] | cell viability [31] | cell viability [32] | cell viability [33]
1 | O=C(NCCCNc1nc(Nc2cccc(NC(=O)N3CCCC3)c2)ncc1I)c1cccs1 | 91.6% | 91.9% | 93% | 90.9% | 87.3% | 84% | 81.3% | 72.5% | 84.9% | 76.1% | 85.1% | 83.2% | 91% | 87.6% | 90% | 85.9% | 90.4% | 94.2% | 50% | 84.5% | 83.7% | 79.9% | 88.1% | 84.6% | 79.8% | 82.6% | 91.7% | 88.1% | 84.9% | 81.4% | 80.2% | 85.6% | 72.4%
2 | C[N]1N=CC2=C1C=C(C(=C2)OC3=CC=C(NC(=O)\C4=C\C=C(\C)N(C4=O)C5=CC=C(F)C=C5)C=C3F)C6=C[NH]N=C6 | 99.5% | 113% | 117% | 114% | 114% | 127% | 123% | 104% | 78.1% | 12% | 8.97% | 104% | 109% | 115% | 117% | 127% | 130% | 130% | 128% | 78.9% | 16.1% | 10.5% | 119% | 123% | 130% | 125% | 124% | 138% | 129% | 128% | 90.2% | 26.6% | 16.3%
3 | N#CC1(c2ccc(NC(=O)c3cccnc3NCc3ccncc3)cc2)CCCC1 | 120% | 123% | 113% | 116% | 116% | 110% | 108% | 104% | 106% | 77.8% | 102% | 119% | 108% | 123% | 107% | 122% | 111% | 113% | 109% | 102% | 110% | 98.9% | 118% | 122% | 115% | 109% | 113% | 114% | 103% | 113% | 103% | 96.3% | 90.8%
4 | O=[S+]([O-])(/N=C/c1c(O)ccc2ccccc12)c1cccs1 | 109% | 113% | 116% | 120% | 120% | 120% | 117% | 122% | 124% | 103% | 84.6% | 119% | 123% | 130% | 115% | 120% | 120% | 133% | 123% | 132% | 123% | 125% | 117% | 121% | 126% | 125% | 124% | 124% | 120% | 122% | 121% | 109% | 103%
5 | C[C@H](NC(=O)Cc1cc(F)cc(F)c1)C(=O)N[C@@H]1C(=O)N(C)c2ccccc2-c2ccccc21 | 105% | 118% | 113% | 116% | 113% | 38.4% | 109% | 99.5% | 6.06% | 3.41% | 1.45% | 110% | 111% | 128% | 128% | 116% | 125% | 119% | 122% | 100% | 3.68% | 2.54% | 97.7% | 111% | 112% | 113% | 118% | 117% | 113% | 115% | 84.8% | 3.93% | 1.82%
6 | CCC(=O)OC1CCC2C3CCC/4=C/C(=O)CC[C@@]4(C)C3CC[C@]12C (stereo partly drawn) | 116% | 120% | 126% | 129% | 126% | 127% | 132% | 128% | 129% | 125% | 117% | – | – | – | – | – | – | – | – | – | – | – | – | – | – | – | – | – | – | – | – | – | –
7 | CN(C)/[N+]([O-])=N/Oc1cc(ON[N+](=O)N2CCN(C(=O)c3cc(Cc4n[nH]c(=O)c5ccccc45)ccc3F)CC2)c([N+](=O)[O-])cc1[N+](=O)[O-] | 102% | 105% | 111% | 112% | 120% | 109% | 106% | 106% | 105% | 106% | 99.4% | 106% | 117% | 116% | 120% | 117% | 121% | 120% | 130% | 108% | 114% | 119% | 97% | 96.2% | 115% | 101% | 109% | 108% | 120% | 111% | 100% | 106% | 103%
8 | NC(=O)c1cnc(-c2ccc(C3(N)CCC3)cc2)c(-c2ccccc2)c1 | – | – | – | – | – | – | – | – | – | – | – | 118% | 126% | 115% | 111% | 115% | 134% | 121% | 116% | 111% | 80.4% | 67.9% | – | – | – | – | – | – | – | – | – | – | –
9 | COc1cccc2c(NCc3ccccc3)nc(-n3c(N)nc4ccccc43)nc12 | 99% | 103% | 108% | 107% | 108% | 112% | 109% | 111% | 94.3% | 58.3% | 8.25% | 94.8% | 108% | 95% | 115% | 111% | 103% | 111% | 110% | 114% | 63.7% | 6.11% | 106% | 100% | 111% | 99.6% | 112% | 114% | 119% | 111% | 102% | 76.6% | 10.1%
